Results taken from patent publication US8734796B2, “Carrier immunoglobulins” (Amgen Inc., priority 2009, dated 2014).
No end group written: not given here.

Experiments:
[1] = system: thapsigargin-induced IFN-g secretion from T cells in human whole blood; test: Human whole blood ex vivo assay, IFN-g secretion; assay type: cell-based; settings: 50% human whole blood, thapsigargin stimulus, 48 hours; read-out: WB (IFNg) IC50
[2] = system: thapsigargin-induced IL-2 secretion from T cells in human whole blood; test: Human whole blood ex vivo assay, IL-2 secretion; assay type: cell-based; settings: for IC50: 50% human whole blood, thapsigargin stimulus, 48 hours, read-out: WB (IL-2) IC50
human Kv1.3 = human Kv1.3 (Homo sapiens, UniProt P22001); test: Whole cell patch clamp electrophysiology, Kv1.3
Chain of human Kv1.3 (P22001 whole entry): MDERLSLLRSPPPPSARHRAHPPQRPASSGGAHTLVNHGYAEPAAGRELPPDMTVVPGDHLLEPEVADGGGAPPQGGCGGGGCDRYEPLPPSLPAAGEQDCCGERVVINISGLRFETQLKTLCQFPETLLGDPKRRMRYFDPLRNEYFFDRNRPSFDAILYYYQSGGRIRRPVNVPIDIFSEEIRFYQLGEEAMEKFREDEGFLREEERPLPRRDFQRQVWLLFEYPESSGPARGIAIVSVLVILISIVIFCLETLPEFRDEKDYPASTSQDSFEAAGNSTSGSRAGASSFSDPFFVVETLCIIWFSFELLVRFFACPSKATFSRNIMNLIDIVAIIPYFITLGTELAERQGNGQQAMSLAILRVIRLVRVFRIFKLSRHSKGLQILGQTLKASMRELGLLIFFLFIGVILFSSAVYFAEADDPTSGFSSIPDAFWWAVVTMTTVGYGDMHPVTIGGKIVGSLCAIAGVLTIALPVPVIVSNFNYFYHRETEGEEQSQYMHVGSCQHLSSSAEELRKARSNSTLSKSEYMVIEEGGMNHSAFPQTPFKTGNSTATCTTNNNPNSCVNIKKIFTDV

cloned hKv1.5 = cloned hKv1.5 (Homo sapiens, UniProt P22460); test: FASTPatch PatchXpress counterscreen, hKv1.5; assay type: cell-based; settings: positive control, 2 mM
Chain of cloned hKv1.5 (P22460 whole entry): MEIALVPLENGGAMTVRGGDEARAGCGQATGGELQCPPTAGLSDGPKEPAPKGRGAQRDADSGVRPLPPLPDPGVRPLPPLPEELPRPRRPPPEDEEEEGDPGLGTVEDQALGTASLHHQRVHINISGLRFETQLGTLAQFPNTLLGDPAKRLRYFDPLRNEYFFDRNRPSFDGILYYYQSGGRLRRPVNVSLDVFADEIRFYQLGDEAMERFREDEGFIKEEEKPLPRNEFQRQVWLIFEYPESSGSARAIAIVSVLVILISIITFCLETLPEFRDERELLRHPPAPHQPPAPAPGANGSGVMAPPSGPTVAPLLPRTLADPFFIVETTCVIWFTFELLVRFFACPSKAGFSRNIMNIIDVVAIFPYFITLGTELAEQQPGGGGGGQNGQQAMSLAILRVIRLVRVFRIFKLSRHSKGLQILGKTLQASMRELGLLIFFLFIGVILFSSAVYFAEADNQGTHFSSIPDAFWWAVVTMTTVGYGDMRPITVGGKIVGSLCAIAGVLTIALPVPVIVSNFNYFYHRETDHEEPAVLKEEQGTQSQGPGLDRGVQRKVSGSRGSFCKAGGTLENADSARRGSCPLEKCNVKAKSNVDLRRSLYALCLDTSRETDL

cloned hKv4.3 = biological target: T1, cloned hKv4.3 (Homo sapiens, UniProt Q9UK17); test: FASTPatch PatchXpress counterscreen, hKv4.3; assay type: cell-based; settings: positive control, 0.1 mM
T1 sequence (Q9UK17 1-655): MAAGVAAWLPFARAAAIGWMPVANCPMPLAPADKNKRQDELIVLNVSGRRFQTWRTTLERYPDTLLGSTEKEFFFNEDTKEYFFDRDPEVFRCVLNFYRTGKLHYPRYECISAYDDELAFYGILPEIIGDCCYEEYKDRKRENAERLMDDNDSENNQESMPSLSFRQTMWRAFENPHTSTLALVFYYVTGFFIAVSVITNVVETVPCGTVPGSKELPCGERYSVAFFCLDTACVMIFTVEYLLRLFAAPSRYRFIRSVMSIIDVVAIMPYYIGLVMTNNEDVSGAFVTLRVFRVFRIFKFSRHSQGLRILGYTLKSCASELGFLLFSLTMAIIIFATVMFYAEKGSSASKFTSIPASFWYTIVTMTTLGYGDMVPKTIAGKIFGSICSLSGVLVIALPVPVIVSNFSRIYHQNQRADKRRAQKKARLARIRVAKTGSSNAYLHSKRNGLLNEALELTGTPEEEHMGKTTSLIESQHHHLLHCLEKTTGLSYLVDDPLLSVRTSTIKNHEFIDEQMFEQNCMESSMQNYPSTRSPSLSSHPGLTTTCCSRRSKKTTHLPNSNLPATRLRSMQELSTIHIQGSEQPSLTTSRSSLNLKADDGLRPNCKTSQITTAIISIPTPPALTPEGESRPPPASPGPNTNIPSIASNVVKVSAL

[3] = reported by C. Beeton et al., PNAS 98:13942 (2001); cited from earlier work
DNP(31)-BSA = biological target: T2, DNP(31)-BSA (Bos taurus, UniProt P02769); test: BIAcore binding assay, DNP(31)-BSA; settings: apparent
T2 construct: purchased Biosearch Technologies, Inc. (Novato, Calif.)
T2 sequence (P02769 25-607): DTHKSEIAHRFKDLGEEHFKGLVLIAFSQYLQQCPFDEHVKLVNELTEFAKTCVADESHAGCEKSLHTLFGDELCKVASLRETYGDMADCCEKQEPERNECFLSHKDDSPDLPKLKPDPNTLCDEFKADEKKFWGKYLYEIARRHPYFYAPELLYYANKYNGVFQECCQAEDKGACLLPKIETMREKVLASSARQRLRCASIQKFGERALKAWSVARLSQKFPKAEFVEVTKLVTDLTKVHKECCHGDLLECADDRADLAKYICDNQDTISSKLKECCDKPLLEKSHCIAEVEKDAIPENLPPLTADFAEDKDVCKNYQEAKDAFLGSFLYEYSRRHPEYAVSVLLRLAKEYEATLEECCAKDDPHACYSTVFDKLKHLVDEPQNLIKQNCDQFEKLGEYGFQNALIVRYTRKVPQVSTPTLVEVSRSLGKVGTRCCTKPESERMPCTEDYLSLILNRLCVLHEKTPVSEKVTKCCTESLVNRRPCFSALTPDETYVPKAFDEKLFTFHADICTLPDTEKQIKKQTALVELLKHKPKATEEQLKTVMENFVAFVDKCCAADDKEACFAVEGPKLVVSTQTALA
Method: Materials. Purified anti-DNP antibodies from either hybridoma (3A1, 3C2, 3A4 and 3B1) or recombinant CHO (3A4-F-G2 and 3B1-G2) expression were tested. Anti-human IgG, Fcγ-specific antibody was from Jackson ImmunoResearch Laboratories, Inc. (West Grove, Pa.). DNP-BSA (2,4-dinitrophenol conjugated to bovine serum albumin) was from Biosearch Technologies, Inc. (Novato, Calif.). BIACore 2000, research grade sensor chip CM5, surfactant P-20 (polyoxyethylenesorbitan), HBS-EP (10 mM HEPES, 0.15M NaCl, 3.4 mM EDTA, 0.005% P-20, pH 7.4), amine coupling reagents, 10 mM acetate pH 4.0 and 10 mM glycine, pH 1.5 were from BIACore, Inc. (Piscataway, N.J.). Phosphate-buffered saline (PBS, 1×, no calcium chloride, no magnesium chloride) was from Invitrogen (Carlsbad, Calif.). Bovine serum albumin (BSA, fraction V, IgG free) was from Sigma (St. Louis, Mo.).
Methods. BIAcore® analyses were carried out as follows. Immobilization of anti-human IgG, Fcγ-specific antibody to the CM5 sensor chip surface was performed according to manufacturer's instructions, using a continuous flow of 10 mM HEPES, 0.15M NaCl, 3.4 mM EDTA, 0.005% P-20, pH 7.4 (HBS-EP buffer). Briefly, carboxyl groups on the sensor chip surfaces were activated by injecting 60 μL of a mixture containing 0.2 M 1-ethyl-3-[3-dimethylaminopropyl]carbodiimide hydrochloride (EDC) and 0.05 M N-hydroxysuccinimide (NHS). Specific surfaces were obtained by injecting 180 μL of anti-human IgG, Fcγ-specific antibody diluted in 10 mM acetate buffer (for assay of aKLH antibodies: pH 4.5 at a concentration of 30 μg/mL; for assay of aDNP antibodies: pH 4.0 at a concentration of 60 μg/mL). Excess reactive groups on the surfaces were deactivated by injecting 60 μL of 1 M ethanolamine. Final immobilized levels were about 9,000 (for assay of aKLH antibodies) or about 10,000 (for assay of aDNP antibodies) resonance units (RU). A blank, mock-coupled reference surface was also prepared on the sensor chip. Antibodies and antigen were diluted in sample buffer consisting of PBS+0.005% P-20+0.1 mg/mL BSA. […]

Bivalent Fc-L10-ShK[1-35] homodimer: IgG1 Fc-L10-ShK(1-35) peptibody homodimer, Example 1 of WO2008/088422A2 (GGGGSGGGGSRSCIDTIPKSRCTAFQCKHSMKYRLSFCRKTCGTC; not fully specified (N-terminus); ends and bridges not checked; also: homodimer via Fc) [reference compound]
IC50 [1]: 320 pM | IC50 [2]: 386 pM | greater Kv1.3 activity compared to the bivalent Fc-L10-ShK(2-35) molecule (human Kv1.3; whole cell patch clamp electrophysiology): about 8 fold

20 kDa-PEG-ShK: SEQ ID NO:363; ShK PEGylated at its N-terminus with 20 kDa PEG [reference compound]
IC50 [1]: 840 pM | IC50 [2]: 380 pM

Nc1ccncc1 [4-aminopyridine]
block of the hKv1.5 current (cloned hKv1.5): about 80%

Bivalent Fc-L10-ShK[2-35] homodimer: IgG1 Fc-L10-ShK(2-35) peptibody homodimer, Example 2 of WO2008/088422A2 (GGGGSGGGGSSCIDTIPKSRCTAFQCKHSMKYRLSFCRKTCGTC; not fully specified (N-terminus); ends and bridges not checked; also: homodimer via Fc) [reference compound]
IC50 [1]: 2280 pM | IC50 [2]: 585 pM | Potency Relative to ShK (WB, IL2) ([2]; ratio of WB IL-2 IC50 to that of ShK(1-35)): 8.73 | Kv1.1/Kv1.3 Selectivity Ratio (of asterisked IC50 values) (human Kv1.3; IC50 values from whole cell patch clamp): 3.54

O=C(NCC1CCCCN1)c1cc(OCC(F)(F)F)ccc1OCC(F)(F)F (stereo not drawn) [flecamide]
inhibition of the hKv4.3 current (cloned hKv4.3): about 75%

CC[C@H](C)[C@@H]1NC(=O)[C@@H](NC(=O)[C@H](CO)NC(=O)[C@@H](N)CCCNC(=N)N)CSSC[C@@H](C(=O)O)NC(=O)[C@H]([C@@H](C)O)NC(=O)CNC(=O)[C@@H]2CSSC[C@@H]3NC(=O)[C@H](CCC(N)=O)NC(=O)[C@H](Cc4ccccc4)NC(=O)[C@H](C)NC(=O)[C@H]([C@@H](C)O)NC(=O)[C@H](CSSC[C@H](NC(=O)[C@H](Cc4ccccc4)NC(=O)[C@H](CO)NC(=O)[C@H](CC(C)C)NC(=O)[C@H](CCCNC(=N)N)NC(=O)[C@H](Cc4ccc(O)cc4)NC(=O)[C@H](CCCCN)NC(=O)[C@H](CCSC)NC(=O)[C@H](CO)NC(=O)[C@H](Cc4cnc[nH]4)NC(=O)[C@H](CCCCN)NC3=O)C(=O)N[C@@H](CCCNC(=N)N)C(=O)N[C@@H](CCCCN)C(=O)N[C@@H]([C@@H](C)O)C(=O)N2)NC(=O)[C@H](CCCNC(=N)N)NC(=O)[C@H](CO)NC(=O)[C@H](CCCCN)NC(=O)[C@@H]2CCCN2C(=O)[C@H]([C@@H](C)CC)NC(=O)[C@H]([C@@H](C)O)NC(=O)[C@H](CC(=O)O)NC1=O [ShK(1-35), ShK]
half-life [3]: 20 to 30 min

B1: 3B1-G2: recombinant IgG2 form of anti-DNP antibody 3B1 (protein)
light: DIQMTQSPSSLSASEGDRVTITCRASQGIRNDLGWYQQKPGKAPKRLIYAASSLQSGVPLRFSGSGSGTEFTLTISSLQPEDFATYYCLQYNSYPWTFGQGTKVEIKRTVAAPSVFIFPPSDEQLKSGTASVVCLLNNFYPREAKVQWKVDNALQSGNSQESVTEQDSKDSTYSLSSTLTLSKADYEKHKVYACEVTHQGLSSPVTKSFNRGEC
heavy: QVQLQESGPGLVKPSETLSLTCTVSGGSISSYYWSWIRQPPGKGLEWIGYIYYSGNTNSNPSLKSRVTISVDTSKNQFSLKLSSVTAADTAVYYCARTYYDSSGYYYRAFDIWGQGTMVTVSSASTKGPSVFPLAPCSRSTSESTAALGCLVKDYFPEPVTVSWNSGALTSGVHTFPAVLQSSGLYSLSSVVTVPSSNFGTQTYTCNVDHKPSNTKVDKTVERKCCVECPPCPAPPVAGPSVFLFPPKPKDTLMISRTPEVTCVVVDVSHEDPEVQFNWYVDGVEVHNAKTKPREEQFNSTFRVVSVLTVVHQDWLNGKEYKCKVSNKGLPAPIEKTISKTKGQPREPQVYTLPPSREEMTKNQVSLTCLVKGFYPSDIAVEWESNGQPENNYKTTPPMLDSDGSFFLYSKLTVDKSRWQQGNVFSCSVMHEALHNHYTQKSLSLSPGK
Kd (DNP(31)-BSA): 700 pM | ka, Binding to DNP(31)-BSA (DNP(31)-BSA; ne(y) = n × 10^(y)): 420000 M⁻¹ s⁻¹ | kd, Binding to DNP(31)-BSA (DNP(31)-BSA; ne(y) = n × 10^(y)): 0.00031 s⁻¹
